In patent publication US10006030B2, “RNA interference compositions targeting heat shock protein 90 and methods of use thereof” (SILENSEED LTD., priority 2014, dated 2018):
d = 2'-deoxy (DNA); r = 2'-OH (RNA)

Columns and labels:
[1] = tested on: LNCaP cells; assay: methylene blue (MB) cell viability assay after siRNA transfection; assay type: cell-based; details: Lipofectamine 2000 transfection, 72 hours incubation, FIG. 1
Method: Prostate cancer cell line LNCaP (ATCC # CRL-1740) was grown in Roswell Park Memorial Institute medium (RPMI) supplemented with 10% fetal bovine serum (FBS) and 100 units/ml penicillin/streptomycin, according to the ATCC protocol. Cells were seeded into 96-well culture plates and incubated overnight before transfection with siRNAs targeting HSP90 sequences.
Cells were transfected using Lipofectamine® 2000 transfection reagent (Life Technologies) based on manufacturer's protocol, with siRNA targeting HSP90: HSP1-1 (sense strand SEQ ID NO: 4, anti-sense strand SEQ ID NO: 8), HSP1-2 (sense strand SEQ ID NO: 5, anti-sense strand SEQ ID NO: 9), and HSP1-3 (sense strand SEQ ID NO: 6, anti-sense strand SEQ ID NO: 10). Cells were also treated with HSP90 inhibitor NVP-AUY922 (or AUY922), a resorcinylicisoxazole amide was used at 5 nM and 10 nM (with similar effect), or left untreated. After 72 hours incubation, cellular viability was determined by standard methylene blue (MB) assay, and quantitated as percentage of viable cells in relation to the untreated sample (FIG. 1).

[2] = tested on: Androgen receptor; assay: AR-dependent luciferase reporter assay in transfected LNCaP cells; assay type: cell-based; details: co-transfection, 24 hours post-transfection, vs mock, p<0.05, FIG. 2
Method: HPS90 is known to be a chaperone of AR (androgen receptor), and is necessary for correct AR post-translational processing. To further test RNAi targeting of HSP90, an AR-dependent luciferase reporter construct was used (FIG. 2). LNCaP cells were cultured as above, and were seeded onto a 48-well culture plate. After an overnight incubation, plated cells were co-transfected using Lipofectamine® 2000 transfection reagent (Life Technologies) based on manufacturer's protocol for DNA-RNA transfections with an AR-luciferase reporter plasmid (Qiagen, CCS-1019L), and siRNA targeting HSP90 (HSP1-1 (sense strand SEQ ID NO: 4, anti-sense strand SEQ ID NO: 8); AR (siAR-1), or a non-target scrambled siRNA (si-scr). Cells transfected only with the AR-luciferase reported plasmid served as the negative control (mock). 24 hours post-transfection, cells were lysed and luciferase activity determined with the Promega luciferase detection kit.

Substance | cellular viability (percentage of viable cells in relation to the untreated sample) [1] | luciferase activity of AR-luciferase reporter plasmid [2]
HSP1-1: siRNA targeting HSP90, sense strand SEQ ID NO: 4, anti-sense strand SEQ ID NO: 8 (sense 5'-AAG ACC AAC CGA UGG AGGAdTdT-3'; antisense 5'-UCC UCC AUC GGU UGG UCUUdTdT-3; as printed in the source, key not given here) | statistically significant decrease | significantly decreased
HSP1-2: siRNA targeting HSP90, sense strand SEQ ID NO: 5, anti-sense strand SEQ ID NO: 9 (sense AAGAGCUGCAUAUUAACCUTT; antisense AGGUUAAUAUGCAGCUCUUTT; sugars from the 5' end r19 d2, backbone not given here) | statistically significant decrease | 
HSP1-3: siRNA targeting HSP90, sense strand SEQ ID NO: 6, anti-sense strand SEQ ID NO: 10 (sense AAGUCUGGGACCAAAGCGUTT; antisense ACGCUUUGGUCCCAGACUUTT; sugars from the 5' end r19 d2, backbone not given here) | statistically significant decrease | 
